For this assay, the system named is ATF4 Nano Luciferase reporter (ATF4 translation / ISR pathway activation). The experiment in a line: ATF4 Nano Luciferase reporter integrated stress response (ISR) assay in H4 ATF4-NLuc (clone 17) cells. It is filed as cell-based. The conditions noted are these: Homo sapiens, 0.5 h, compounds added for 30 minutes at 37° C., then 50 μm sodium arsenite for 6 additional hours, luminescence readout. The text has this:
Cellular stress leads to activation of the integrated stress response pathway through one of four eukaryotic initiation factor 2α kinases and halts global translation, while allowing for the translation of select transcripts like ATF4 (activating transcription factor 4) that are important for the response to cellular stress. During normal conditions, small open reading frames (ORFs) in the 5′ UTR of ATF4 occupy the ribosome and prevent translation of the coding sequence of ATF4. During stress conditions however, the ribosome scans past these upstream ORFs and preferentially begins translation at the coding sequence of ATF4. In this way, the translation, and thus protein level of ATF4 is a readout of ISR pathway activation. Thus, a fusion of the uORFs and the beginning of the coding sequence of ATF to a common cellular reporter like nano-luciferase allows for a sensitive and high-throughput readout of ISR pathway activity.
Certain compounds provided herein were tested in the following assay. The ATF4 Nano Luciferase reporter was constructed by fusing the human full length 5′ untranslated region (5′-UTR) and a small portion of the coding sequence of the ATF4 gene upstream of the Nano Luciferase (NLuc) coding sequence lacking it's start codon. Specifically, nucleotides +1 through +364 (relative to the transcriptional start site) of ATF4 transcript variant 2 (NCBI NM_182810.2) flanked 5′ by EcoRI and 3′ by BamHI restriction enzyme sites were synthesized and cloned into the EcoRI/BamHI cloning sites of pLVX-EF1a-IRES-Puro lentivirus vector (Clontech). Lentiviral particles were produced with Lenti-X single shots (VSV-G, Clontech) according to the manufacturer's instructions and used to transduce a human H4 neuroglioma cell line (ATCC HTB-148). H4 cells were selected with 1.25 μg/mL Puromycin, and clonal cell lines generated by limiting dilution. This cell line was utilized to generate an integrated stress response (ISR) assay to evaluate the activity of ISR pathway inhibitors via luminescence readout. The H4 ATF4-NLuc (clone 17) cell line was plated at a density of 15,000 or 2,500 cells in 96-well or 384-well respectively in DMEM+10% fetal bovine serum. 24-hours later test compounds diluted in dimethyl sulfoxide (DMSO) were added for 30 minutes at 37° C., followed by ISR pathway activation with […] sodium arsenite aqueous solution for 6 additional hours. Nano Glo luciferase reagent (N1150, Promega) was added according to manufacturer instructions and the luminescence signal (corresponding to the level of ATF4 translation and thus ISR pathway activation) was read with a standard plate reader with luminescence detection capabilities. In Table 2, the activity of certain compounds disclosed herein as tested in the assay above is provided.
For orientation: Reporter assays use an easily measured gene product as a stand-in for the process of interest.
For `O=C(COc1ccc(C(F)(F)F)c(F)c1)NC12CC(c3nnc(OCCOCC(F)(F)F)o3)(C1)C2` [Example 9, 2-(3-fluoro-4-(trifluoromethyl)phenoxy)-N-(3-(5-(2-(2,2,2-trifluoroethoxy)ethoxy)-1,3,4-oxadiazol-2-yl)bicyclo[1.1.1]pentan-1-yl)acetamide], the IC50 (as a rule, the concentration that inhibits the measured activity by half) turned out to be 6.1 nM.

In turn, `O=C(COc1ccc(Cl)cc1)NC12CC(c3nnc(OCCOC(F)(F)F)o3)(C1)C2` [Example 1] came in with an IC50 of 62 nM.

Consider `CN(CCOC(F)(F)F)c1nnc(C23CC(NC(=O)COc4ccc(C(F)(F)F)cc4)(C2)C3)o1` [Example 5], for which 54 nM corresponded to half-maximal inhibition (IC50).

`O=C(COc1ccc(Br)cc1)NC12CC(c3nnc(OCCOCC(F)(F)F)o3)(C1)C2` [Example 7, 2-(4-bromophenoxy)-N-(3-(5-(2-(2,2,2-trifluoroethoxy)ethoxy)-1,3,4-oxadiazol-2-yl)bicyclo[1.1.1]pentan-1-yl)acetamide] yielded an IC50 of 16 nM.

The compound `O=C(COc1ccc(C(F)(F)F)cc1)NC12CC(c3nnc(NCCOC(F)(F)F)o3)(C1)C2` [Example 4] registered an IC50 of 36 nM.

For the compound `O=C(COc1ccc(C(F)(F)F)cc1)NC12CC(c3nnc(OCCOC(F)(F)F)o3)(C1)C2` [Example 2], the IC50 is 4.9 nM.

As for `O=C(COc1ccc(Cl)cc1)NC12CC(c3nnc(OCCOCC(F)(F)F)o3)(C1)C2` [Example 3], the IC50 came out at 16 nM.

Turning to `O=C(COc1ccc(C(F)(F)F)cc1)NC12CC(c3nnc(OCCOCC(F)(F)F)o3)(C1)C2` [Example 6, N-(3-(5-(2-(2,2,2-trifluoroethoxy)ethoxy)-1,3,4-oxadiazol-2-yl)bicyclo[1.1.1]pentan-1-yl)-2-(4-(trifluoromethyl)phenoxy)acetamide], the IC50 amounted to 21 nM.

Turning to `O=C(COc1ccc(Br)cc1)NC12CC(c3nnc(OCCOC(F)(F)F)o3)(C1)C2` [Example 8, 2-(4-bromophenoxy)-N-(3-(5-(2-(trifluoromethoxy)ethoxy)-1,3,4-oxadiazol-2-yl)bicyclo[1.1.1]pentan-1-yl)acetamide], the IC50 is 23 nM.

The record behind these values is patent US12091392B2, “Compounds, compositions and methods” (Denali Therapeutics Inc., priority 2019, dated 2024).
